Data from ChEMBL document CHEMBL5154941, “Structural Modifications of Nimodipine Lead to Novel PDE1 Inhibitors with Anti-pulmonary Fibrosis Effects” (J Med Chem, 2022).

Experiments:
[1] = target: T1, Dual specificity calcium/calmodulin-dependent 3',5'-cyclic nucleotide phosphodiesterase 1C (Homo sapiens, UniProt Q14123); assay: Inhibition of PDE1C (147 to 531 residues) (unknown origin) expressed in Escherichia coli BL21 at 1000 nM [3H]-cGMP as substrate measured for 15 mins by liquid scintillation counter method relative to control
T1 sequence (Q14123 whole entry, the tested form may be a part): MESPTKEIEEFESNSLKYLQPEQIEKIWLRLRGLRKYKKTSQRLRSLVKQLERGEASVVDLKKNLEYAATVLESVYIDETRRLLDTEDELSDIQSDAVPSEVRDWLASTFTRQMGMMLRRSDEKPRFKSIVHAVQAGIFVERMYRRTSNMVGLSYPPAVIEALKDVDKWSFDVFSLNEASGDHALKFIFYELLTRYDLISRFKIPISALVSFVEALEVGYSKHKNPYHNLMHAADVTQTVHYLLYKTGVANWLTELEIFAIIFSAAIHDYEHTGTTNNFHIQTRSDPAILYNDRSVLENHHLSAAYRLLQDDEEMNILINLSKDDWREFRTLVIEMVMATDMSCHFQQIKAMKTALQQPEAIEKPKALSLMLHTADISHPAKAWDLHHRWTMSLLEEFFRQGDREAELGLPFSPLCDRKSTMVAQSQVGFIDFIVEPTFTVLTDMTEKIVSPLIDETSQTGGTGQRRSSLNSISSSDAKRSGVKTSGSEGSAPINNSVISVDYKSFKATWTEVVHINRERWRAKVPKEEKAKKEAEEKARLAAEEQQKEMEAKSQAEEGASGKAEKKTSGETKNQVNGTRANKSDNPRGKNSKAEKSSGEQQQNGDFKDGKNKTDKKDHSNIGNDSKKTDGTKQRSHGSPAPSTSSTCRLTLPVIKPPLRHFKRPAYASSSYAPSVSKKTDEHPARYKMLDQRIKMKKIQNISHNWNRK

[2] = target: T1, Dual specificity calcium/calmodulin-dependent 3',5'-cyclic nucleotide phosphodiesterase 1C; assay: Inhibition of PDE1C (147 to 531 residues) (unknown origin) expressed in Escherichia coli BL21 using [3H]-cGMP as substrate measured for 15 mins by liquid scintillation counter method
[3] = species: Homo sapiens; assay: Selectivity ratio of IC50 for PDE4D (unknown origin) expressed in Escherichia coli BL21 to IC50 for PDE1C (147 to 531 residues) (unknown origin) expressed in Escherichia coli BL21

| SMILES | inhibition [1] | Ratio IC50 [3] | IC50 [2] |
| --- | --- | --- | --- |
| COC(=O)C1=C(C)NC(C)=C(C(=O)OC)C1c1ccc(F)c(F)c1 | 42% |  |  |
| COC(=O)C1=C(C)NC(C)=C(C(=O)OC)C1c1ccccc1[N+](=O)[O-] [NIFEDIPINE] |  |  | > 10000 nM |
| COC(=O)C1=C(C)NC(C)=C(C(=O)OC)C1c1cccc(C#N)c1 | 25% |  |  |

Continued, in another order:

| inhibition [1] | Ratio IC50 [3] | SMILES | IC50 [2] |
| --- | --- | --- | --- |
| 43% |  | COC(=O)C1=C(C)NC(C)=C(C(=O)OC)C1c1ccc(OC)c(OC)c1 |  |
|  | 5.8 | COCCOC(=O)C1=C(C)NC(C)=C(C(=O)OC(C)C)C1c1cccc([N+](=O)[O-])c1 (stereo unspecified) [NIMODIPINE] | 1240 nM |
